According to patent US11248019B2, “Trityl-mono-GalNAc compounds and their use” (Hoffmann-La Roche Inc., priority 2016, dated 2022):

Columns and labels:
ApoB mRNA [1] = experiment: ApoB mRNA knockdown in liver and kidney by qPCR, single sc dose, sacrifice day 10 (Example 4); assay type: in vivo, C57BL6/J mice; conditions: 0.25 mg/kg single sc dose
Protocol: (§1) Female C57BL6/J mice (5/group appr. 20 g at arrival) were injected subcutaneous (sc) with a single dose saline or 0.25 mg/kg unconjugated LNA-antisense oligonucleotide (compound F) or with 0.25 mg/kg or 0.1 mg/kg of GalNAc conjugated LNA antisense oligonucleotide (Compound C or E of the invention or reference compound G). Blood samples of 50 μl were collected pre-dosing at day minus 6, and post dosing at day 3 and 7. The animals were sacrificed at day 10 and total serum was collected as well as liver and kidney.
(§2) ApoB mRNA knockdown was analyzed by qPCR. In brief, RNA was isolated from homogenized liver and kidney using MagnaPure RNA Isolation and purification system (catalog #03604721001 and #05467535001; Roche) according to the manufacturer's instructions. RT-QPCR was done using Taqman Fast Universal PCR Master Mix 2×(Applied Biosystems Cat #4364103) and Taqman gene expression assay (mApoB, Mn01545150_m1 and mGAPDH #4352339E) following the manufacturers protocol.

[2] = Oligonucleotide content in liver and kidney by ELISA (Example 4); assay type: in vivo, C57BL6/J mice; conditions: 0.25 mg/kg single sc dose, day 10
Protocol: as §1
The oligonucleotide content in the liver and kidney was measured using ELISA (see for example Straarup et al 2010 Nucleic Acid Res Vol 38 pp 7100-7111), results are shown in Table 6.

ApoB mRNA [3] = experiment: ApoB mRNA knockdown in liver and kidney by qPCR, single iv dose, sacrifice day 3 (Example 6); assay type: in vivo, C57BL6/J mice
Protocol: as §2
(§3) Female C57BL6/J mice (5/group appr. 20 g at arrival) were injected intravenous (iv) with a single dose saline, 0.22 mg/kg, 0.45 mg/kg or 0.89 mg/kg, of GalNAc conjugated LNA antisense oligonucleotide (Compound H, I or J of the invention) or the naked reference compound F. Blood samples of 50 μl were collected pre-dosing at day minus 6. The animals were sacrificed at day 3. Total serum was collected as well as liver and kidney.

[4] = Oligonucleotide content in liver and kidney by ELISA (Example 6); assay type: in vivo, C57BL6/J mice; conditions: day 3
Protocol: as §3
The oligonucleotide content in the liver and kidney was measured using ELISA (see for example Straarup et al 2010 Nucleic Acid Res Vol 38 pp 7100-7111), results are shown in Table 11A and 11B.

[5] = system: total cholesterol in serum; experiment: Total cholesterol in serum (Example 6); assay type: in vivo, C57BL6/J mice; conditions: day 3
Protocol: as §3
Total cholesterol in serum was measured using ABX Pentra Cholesterol CP (Triolab, Brondby, Denmark) according to the manufacturer's instructions.

ALT in serum (Example 6) = assay type: in vivo, C57BL6/J mice; conditions: day 3
Protocol: as §3
ALT (Alanine aminotransferase) was measured using ABX Pentra ALT CP reagent (A11A01627 Triolab, Brondby, Denmark. The results are shown in Table 13.

ApoB mRNA [6] = experiment: ApoB mRNA knock down in primary mouse hepatocytes, qPCR (Example 9); assay type: cell-based, C57BL/6J female mice; conditions: n = 2
Protocol: Primary mouse hepatocytes were isolated from C57BL/6J female mice. The mice were anesthesized and the liver was perfused at a flow rate of 7 ml per min through the vena cava using Hank's balanced salt solution containing 15 mM Hepes and 0.38 mM EGTA for 5 min followed by collagenase solution (Hank's balanced salt solution containing 0.17 mg/ml Collagenase type 2 (Worthington 4176), 0.03% BSA, 3.2 mM CaCl2 and 1.6 g/I NaHCO3) for 12 min. Following perfusion, the liver was removed and the liver capsule was opened, the liver suspension was filtered through 70 μm cell strainer using William E medium. The cell suspension was centrifuged for 3 min at 50×g. Viable hepatocytes were further enriched by gradient centrifugation with 45% Percoll (Sigma cat. No. P4937) for 10 min at 50×g. The pellet was washed and resuspended in 25 ml William E medium (Sigma cat. no. W1878 complemented with 1×Pen/Strep, 2 mM L-glutamine and 10% FBS (ATCC #30-2030)), and seeded at 25.000 cells per well in collagen coated 96 well plates. After 3 hours the medium was exchanged and the oligonucleotides were added using 3 fold dilutions from […]. Two different incubation regimens were used, one where the cells were incubated 4 hours with oligonucleotide following a medium exchange and continued incubation to a total of 72 hours. […]

[7] = system: primary mouse hepatocytes; experiment: Oligonucleotide content in primary mouse hepatocyte culture by ELISA (Example 9); assay type: in vitro ADME, C57BL/6J female mice
Protocol: Primary mouse hepatocytes were isolated from C57BL/6J female mice. The mice were anesthesized and the liver was perfused at a flow rate of 7 ml per min through the vena cava using Hank's balanced salt solution containing 15 mM Hepes and 0.38 mM EGTA for 5 min followed by collagenase solution (Hank's balanced salt solution containing 0.17 mg/ml Collagenase type 2 (Worthington 4176), 0.03% BSA, 3.2 mM CaCl2 and 1.6 g/I NaHCO3) for 12 min. Following perfusion, the liver was removed and the liver capsule was opened, the liver suspension was filtered through 70 μm cell strainer using William E medium. The cell suspension was centrifuged for 3 min at 50×g. Viable hepatocytes were further enriched by gradient centrifugation with 45% Percoll (Sigma cat. No. P4937) for 10 min at 50×g. The pellet was washed and resuspended in 25 ml William E medium (Sigma cat. no. W1878 complemented with 1×Pen/Strep, 2 mM L-glutamine and 10% FBS (ATCC #30-2030)), and seeded at 25.000 cells per well in collagen coated 96 well plates. […] Two different incubation regimens were used, one where the cells were incubated 4 hours with oligonucleotide following a medium exchange and continued incubation to a total of 72 hours. In the second regimen the cells were incubated for 72 hours with the oligonucleotides.
Oligonucleotide content analysis was performed using ELISA (see for example Straarup et al 2010 Nucleic Acid Res Vol 38 pp 7100-7111), results are shown in table 20 and 21 below.

With “5′-GS^mCSaStStSgSgStSaStSTS^mCSA-3′ [Compound F, reference compound]” the “ApoB mRNA expression as % of saline, mRNA kidney” value (ApoB mRNA [1]; day 10, kidney) was 24.7 % of saline, the “ApoB mRNA expression as % of saline, mRNA liver” value (ApoB mRNA [1]; day 10, liver) was 74.5 % of saline and the “Oligonucleotide content, Kidney” value [2] was 1.370 μg/g tissue. The “Oligonucleotide content, Liver” value [2] was 0.028 μg/g tissue, the “ApoB mRNA expression as % of saline in kidney” value (ApoB mRNA [3]; 0.22 mg/kg single iv dose) was 68.0 % of saline and the “ApoB mRNA/mGAPDH expression as % of saline in liver” value (“ApoB mRNA/mGAPDH expression as %” below) (ApoB mRNA [3]; 0.22 mg/kg single iv dose) was 87.5 % of saline. The “ApoB mRNA expression as % of saline in kidney” value (ApoB mRNA [3]; 0.45 mg/kg single iv dose) was 51.1 % of saline, the “ApoB mRNA/mGAPDH expression as %” value (ApoB mRNA [3]; 0.45 mg/kg single iv dose) was 90.2 % of saline and the “ApoB mRNA expression as % of saline in kidney” value (ApoB mRNA [3]; 0.89 mg/kg single iv dose) was 29.0 % of saline. The “ApoB mRNA/mGAPDH expression as %” value (ApoB mRNA [3]; 0.89 mg/kg single iv dose) was 53.8 % of saline, the “Oligonucleotide content in kidney tissue” value ([4]; 0.22 mg/kg single iv dose) was 0.337 µg/g and the “Oligonucleotide content in liver tissue” value ([4]; 0.22 mg/kg single iv dose) was 0.059 µg/g. For the same substance, the “Oligonucleotide content in kidney tissue” value ([4]; 0.45 mg/kg single iv dose) was 0.506 µg/g, the “Oligonucleotide content in liver tissue” value ([4]; 0.45 mg/kg single iv dose) was 0.173 µg/g and the “Oligonucleotide content in kidney tissue” value ([4]; 0.89 mg/kg single iv dose) was 1.050 µg/g. The “Oligonucleotide content in liver tissue” value ([4]; 0.89 mg/kg single iv dose) was 0.470 µg/g, the “serum cholesterol percent of saline” value ([5]; 0.22 mg/kg single iv dose) was 104.3% of saline and the “serum cholesterol percent of saline” value ([5]; 0.45 mg/kg single iv dose) was 86.8% of saline. For the same substance, the “serum cholesterol percent of saline” value ([5]; 0.89 mg/kg single iv dose) was 66.9% of saline, the “ALT levels (U/L) in serum at day 3 as % of saline” value (from here on “ALT levels (U/L) … as % of saline”) (ALT in serum (Example 6); 0.22 mg/kg single iv dose) was 91 % of saline and the “ALT levels (U/L) … as % of saline” value (ALT in serum (Example 6); 0.45 mg/kg single iv dose) was 151 % of saline. For the same substance, the “ALT levels (U/L) … as % of saline” value (ALT in serum (Example 6); 0.89 mg/kg single iv dose) was 217 % of saline, the IC50 (ApoB mRNA [6]; 4 h pulse/72 h total incubation) was 2620 nM and the IC50 (ApoB mRNA [6]; 72 h oligonucleotide treatment) was 331 nM. The “oligonucleotide content in the cell culture” value ([7]; 4 h pulse, 72 hours total incubation, 1 μM) was 0.1 pmol/μg protein, the “oligonucleotide content in the cell culture” value ([7]; 4 h pulse, 72 hours total incubation, 3 μM) was 0.4 pmol/μg protein and the “oligonucleotide content in the cell culture” value ([7]; 4 h pulse, 72 hours total incubation, 9 μM) was 1.0 pmol/μg protein. The “oligonucleotide content in the cell culture” value ([7]; 4 h pulse, 72 hours total incubation, 27 μM) was 1.4+/−0.2 pmol/μg protein, the “oligonucleotide content in the cell culture” value ([7]; 72 h oligonucleotide treatment, 0.11 μM) was 0.5 pmol/μg protein and the “oligonucleotide content in the cell culture” value ([7]; 72 h oligonucleotide treatment, 0.33 μM) was 1.5 pmol/μg protein. For the same substance, the “oligonucleotide content in the cell culture” value ([7]; 72 h oligonucleotide treatment, 1 μM) was 7.9 pmol/μg protein, the “oligonucleotide content in the cell culture” value ([7]; 72 h oligonucleotide treatment, 3 μM) was 14.5 pmol/μg protein and the “oligonucleotide content in the cell culture” value ([7]; 72 h oligonucleotide treatment, 9 μM) was 34.1 pmol/μg protein. For the same substance, the “oligonucleotide content in the cell culture” value ([7]; 72 h oligonucleotide treatment, 27 μM) was 34.2+/−0.7 pmol/μg protein.
